Broadly, the IC50 is the concentration at which inhibition is half-maximal. Lower therefore signals inhibition by little substance.

SMILES strings stand for the structures.

The values that follow come from ChEMBL document CHEMBL1123486, “Probes for narcotic receptor mediated phenomena. 9. Synthesis of (+/-)-(3 alpha,6a alpha,11a beta)-1,3,4,5,6,11a-hexahydro-2-methyl-2H-3,6a- methanobenzofuro[2,3-c]azocin-10-ol, an oxide-bridged 5-(m-hydroxyphenyl)morphan” (J Med Chem, 1986).

The experiment concerns the target Opioid receptor (Rattus norvegicus, UniProt P33533+P34975+P33535). Nature of the experiment: Binding affinity towards opioid receptor. Type of experiment: protein assay.

Molecule `CN1CC[C@]23CCCC1[C@H]2Oc1c(O)cccc13` had an IC50 of 96 nM. Next, `CN1CC2Oc3cc(O)ccc3[C@@]23CCCC1C3` (stereo partly drawn): 1000 nM. The molecule `CN1CC[C@@]23CC1CC[C@@H]2Oc1c(O)cccc13` returned an IC50 of 1766 nM.
